# Source: patent publication US6906188B2, “Method for synthesizing epothilones and epothilone analogs” (State of Oregon acting by and through the State Board of …, priority 2001, dated 2005)
# Where two headings read alike, the source gives them in different places.
# How the values were obtained:
# porcine tubulin = porcine tubulin (Sus scrofa, UniProt P02554); test: Induction of porcine tubulin polymerization; type: biochemical
# KB-31 (Epidermoid) = test: Antiproliferative activity (growth inhibition), KB-31 cells; type: cell-based; conditions: Homo sapiens
# Method: (§1) The antiproliferative activity of cis 9,10-dehydroepothilone D and trans 9,10-dehydroepothilone D was assessed in vitro using a panel of human cancer cell lines.
# [1] = test system: KB-8511 (Epidermoid), Pgp-overexpressing sub-line of KB-31; test: Antiproliferative activity (growth inhibition), KB-8511 cells; conditions: Homo sapiens
# Method: as §1
# A549 (lung) = test: Antiproliferative activity (growth inhibition), A549 cells; type: cell-based; conditions: Homo sapiens
# Method: as §1
# HCT-116 (colon) = test: Antiproliferative activity (growth inhibition), HCT-116 cells; type: cell-based; conditions: Homo sapiens
# Method: as §1
# PC3-M (prostate) = test: Antiproliferative activity (growth inhibition), PC3-M cells; type: cell-based; conditions: Homo sapiens, PC-3M, read-out: IC50 PC3-M (prostate)
# Method: as §1
# MCF-7 (breast) = test: Antiproliferative activity (growth inhibition), MCF-7 cells; type: cell-based; conditions: Homo sapiens
# Method: as §1
# tubulin = conditions: Merck comparison with Taxol; cited from earlier work
# [2] = test system: Potorous tridactylis kidney epithelial (PtK2) cells; conditions: indirect immunofluorescence; cited from earlier work
# [3] = test system: subcutaneous implantations of tumor tissues; conditions: mice, subcutaneous tumor implants, Sloan Kettering; cited from earlier work
# [4] = test system: IFN-γ-treated murine-macrophage; conditions: IFN-γ-treated murine macrophages; cited from earlier work
# [5] = test system: Pgp-expressing MDR neuroblastoma cell line (SK-N SH); conditions: cited from earlier work
# [6] = test system: panel of human cancer cell lines; test: Antiproliferative activity across the cell line panel; type: cell-based
# From the text: Known epothilones have significant biological activity.
# [7] = Table 2, under the conditions used for Table 1, unit not given
# [8] = KB 3-1, Table 2, under the conditions used for Table 1 (there nM), unit inferred, read-out: IC50 KB-31 (Epidermoid)
# [9] = KB 3-1, read-out: IC50 KB-8511 (Epidermoid)
# [10] = 5 μM compound, relative to the effect of Epothilone B at 25 μM defined as 100%
# [11] = KB 3-1, read-out: IC50 KB-31 (Epidermoid), Table 2, under the conditions used for Table 1 (there nM), unit inferred
# [12] = KB 3-1, read-out: IC50 KB-8511 (Epidermoid), Table 1, Pgp-overexpressing sub-line, mean of three independent experiments
# [13] = KB 3-1, read-out: IC50 KB-8511 (Epidermoid), Table 2, under the conditions used for Table 1 (there nM), unit inferred
# [14] = A549, read-out: IC50 A549 (lung)
# [15] = HCT-116, read-out: IC50 HCT-116 (colon)
# [16] = MCF7, read-out: IC50 MCF-7 (breast)
# [17] = KB 3-1, Table 1, mean of three independent experiments, read-out: IC50 KB-31 (Epidermoid)
# [18] = A549, mean of three independent experiments, read-out: IC50 A549 (lung)
# [19] = HCT-116, mean of three independent experiments, read-out: IC50 HCT-116 (colon)
# [20] = mean of three independent experiments
# [21] = MCF7, mean of three independent experiments, read-out: IC50 MCF-7 (breast)
# [22] = antiproliferative potency, cell line panel of Table 1
# Chain of porcine tubulin (P02554 whole entry): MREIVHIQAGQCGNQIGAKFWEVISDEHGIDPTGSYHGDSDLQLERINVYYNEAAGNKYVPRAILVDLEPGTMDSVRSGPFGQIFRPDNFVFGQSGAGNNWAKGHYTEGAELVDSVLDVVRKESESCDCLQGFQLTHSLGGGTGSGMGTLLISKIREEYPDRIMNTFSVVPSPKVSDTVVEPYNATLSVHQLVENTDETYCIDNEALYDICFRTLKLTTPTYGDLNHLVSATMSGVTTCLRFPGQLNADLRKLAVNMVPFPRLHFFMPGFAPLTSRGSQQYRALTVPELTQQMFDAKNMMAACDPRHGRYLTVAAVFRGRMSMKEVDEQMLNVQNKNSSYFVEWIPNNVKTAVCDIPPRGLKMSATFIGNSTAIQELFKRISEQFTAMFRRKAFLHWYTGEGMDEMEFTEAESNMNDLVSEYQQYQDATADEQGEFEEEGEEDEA
# Chain of porcine tubulin (P02550 whole entry partner): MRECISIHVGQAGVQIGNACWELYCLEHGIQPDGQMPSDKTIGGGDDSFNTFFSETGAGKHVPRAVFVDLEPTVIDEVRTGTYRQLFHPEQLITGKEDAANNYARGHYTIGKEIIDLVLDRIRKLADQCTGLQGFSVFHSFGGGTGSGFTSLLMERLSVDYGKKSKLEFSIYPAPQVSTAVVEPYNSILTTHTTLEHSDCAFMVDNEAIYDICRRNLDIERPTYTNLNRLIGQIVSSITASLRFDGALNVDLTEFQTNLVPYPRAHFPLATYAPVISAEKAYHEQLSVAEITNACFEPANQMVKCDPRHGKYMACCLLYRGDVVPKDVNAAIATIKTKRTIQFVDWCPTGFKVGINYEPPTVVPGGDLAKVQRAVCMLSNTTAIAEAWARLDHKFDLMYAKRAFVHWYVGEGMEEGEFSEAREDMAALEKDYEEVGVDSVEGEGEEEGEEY
Tubulin Polym. (porcine tubulin; [10]) [%],"IC50 [1, 12] [nM]",IC50 (KB-31 (Epidermoid); [17]) [nM],IC50 (A549 (lung); [18]) [nM],IC50 (HCT-116 (colon); [19]) [nM],IC50 (PC3-M (prostate); [20]) [nM],IC50 (MCF-7 (breast); [21]) [nM],Compound,Tubulin Polym. (porcine tubulin; [7]),other results
–,–,–,–,–,–,–,C/C1=C/C[C@@H](/C(C)=C/c2csc(C)n2)OC(=O)C[C@H](O)C(C)(C)C(=O)[C@H](C)[C@@H](O)[C@@H](C)C(=O)OC1 [Bislactone],21.4,"IC50 (KB-31 (Epidermoid); [8]): 25.5 nM; IC50 [1, 9]: 25.2 nM"
–,–,–,–,–,–,–,C/C(=C\c1csc(C)n1)[C@@H]1CC2O[C@@H]2CCC[C@H](C)[C@H](O)[C@@H](C)C(=O)C(C)(C)[C@@H](O)CC(=O)O1 (stereo partly drawn) [Epothilone A],–,potency as tubulin polymerization agent (rank order) (tubulin): epothilone B>epothilone A>Taxol; activity against Pgp-expressing MDR neuroblastoma cell line [5]: active
36,70.4,104,109,110,147,95,"C/C1=C\C[C@@H](/C(C)=C/c2csc(C)n2)OC(=O)C[C@H](O)C(C)(C)C(=O)[C@H](C)[C@@H](O)[C@@H](C)/C=C/C1 [trans 9,10, trans 12,13-dehydroepothilone D]",–,"average IC50 for growth inhibition, fold higher than cis 9,10-dehydroepothilone D ([6]; average over the cell line panel): 1.36 fold"
56,28.5,59.4,109,102,146,72,"C/C1=C/C[C@@H](/C(C)=C/c2csc(C)n2)OC(=O)C[C@H](O)C(C)(C)C(=O)[C@H](C)[C@@H](O)[C@@H](C)/C=C\C1 [9,10-cis-Dehydroepothilone D, 9,10-dehydrodes-epoxyepothilone B]",–,"fold less potent than epothilone B [6, 22]: 330- to 670 fold; fold less potent than natural epothilone D [6, 22]: 20- to 30 fold"
53,842,2.67,5.19,4.88,6.62,3.26,"CC(=O)O[C@H]1C(=O)[C@@]2(C)[C@H]([C@H](OC(=O)c3ccccc3)[C@]3(O)C[C@H](OC(=O)[C@H](O)[C@@H](NC(=O)c4ccccc4)c4ccccc4)C(C)=C1C3(C)C)[C@]1(OC(C)=O)CO[C@@H]1C[C@@H]2O [Paclitaxel (Taxol), Paclitaxel]",38.9,"IC50 (KB-31 (Epidermoid); [8]): 2.9 nM; IC50 [1, 13]: 661 nM"

Compound,Tubulin Polym. (porcine tubulin; [10]) [%],"IC50 [1, 12] [nM]",IC50 (KB-31 (Epidermoid); [17]) [nM],IC50 (A549 (lung); [18]) [nM],IC50 (HCT-116 (colon); [19]) [nM],IC50 (PC3-M (prostate); [20]) [nM],IC50 (MCF-7 (breast); [21]) [nM],Tubulin Polym. (porcine tubulin; [7]),other results
C/C(=C\c1csc(C)n1)[C@@H]1C[C@@H]2O[C@]2(C)CCC[C@H](C)[C@H](O)[C@@H](C)C(=O)C(C)(C)[C@@H](O)CC(=O)O1 [Epothilone B],95,0.16,–,–,–,–,–,81.4,"IC50 (KB-31 (Epidermoid); [11]): 0.24 nM; IC50 [1, 13]: 0.15 nM; IC50 (A549 (lung); [14]): 0.16 nM; IC50 (HCT-116 (colon); [15]): 0.34 nM; IC50 (PC3-M (prostate)): 0.32 nM; IC50 (MCF-7 (breast); [16]): 0.29 nM; potency as tubulin polymerization agent (rank order) (tubulin): epothilone B>epothilone A>Taxol; formation of microtubule bundles [2]: most active, inducing extensive formation of microtubule bundles; in vivo antitumor effect compared with Taxol [3]: superiority; macrophage stimulatory activity as measured by nitric oxide release [4]: lacked any IFN-γ-treated murine-macrophage stimulatory activity"
C/C1=C/C[C@@H](/C(C)=C/c2csc(C)n2)OC(=O)C[C@H](O)C(C)(C)C(=O)[C@H](C)[C@@H](O)[C@@H](C)CCC1 [Epothilone D],88,–,–,–,–,–,–,62.3,"IC50 (KB-31 (Epidermoid); KB 3-1, read-out: IC50 KB-31 (Epidermoid), Table 1, mean of three independent experiments): 1.94 nM; IC50 (KB-31 (Epidermoid); [11]): 1.94 nM; IC50 [1, 9]: 1 nM; IC50 (A549 (lung); [14]): 4.62 nM; IC50 (HCT-116 (colon); [15]): 4.48 nM; IC50 (PC3-M (prostate)): 7.4 nM; IC50 (MCF-7 (breast); [16]): 2.31 nM"
